Laboratory results from US20240262842A1, “SMALL MOLECULE INHIBITORS OF KRAS G12C MUTANT” (Merck Sharp & Dohme LLC, priority 2021, published 2024).

Target: biotinylated KRAS G12C protein (GMP-PNP loaded) and GST-tagged Ras binding domain of c-RAF (Homo sapiens, UniProt P01116, C118S/C51S/C80L/G12C)
Test: RAS:RAF-RBD binding assay (TR-FRET)
Conditions: 30-minute incubation of compound with KRAS G12C before RAF-RBD; Table 4; read-out: IC50

Sequence of biotinylated KRAS G12C protein (GMP-PNP loaded) and GST-tagged Ras binding domain of c-RAF (P01116 with tags, fused parts or gaps isoform P01116-2 G12C/C51S/C80L/C118S): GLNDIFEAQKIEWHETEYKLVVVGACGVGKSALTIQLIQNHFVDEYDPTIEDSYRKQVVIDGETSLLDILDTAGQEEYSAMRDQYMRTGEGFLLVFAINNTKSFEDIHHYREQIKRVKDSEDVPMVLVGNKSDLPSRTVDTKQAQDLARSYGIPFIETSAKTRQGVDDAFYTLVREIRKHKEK

| SMILES | IC50 [nM] |
| --- | --- |
| Cc1nc2c3c(c(C(F)(F)F)cc2n1C)-c1cccn2c(C(=O)c4cc(F)c(NC(=O)/C=C/C5CCCN5)c(F)c4)cc(c12)CCO3 (single isomer, unassigned) [Example 251, (E)-N-(4-(9,10-dimethyl-7-(trifluoromethyl)-13,14-dihydro-9H-imidazo-[4″,5″:5′,6′]benzo[1′,2′: 2,3]oxocino[4,5,6-hi]-indolizine-2-carbonyl)-2,6-difluorophenyl)-3-(pyrrolidin-2-yl)acryl-amide] | 16.7 |
| Cc1nc2c3c(c(C(F)(F)F)cc2n1C)-c1cccn2c(C(=O)c4cc(F)c(NC(=O)/C=C/CN5CCC[C@@]5(C)C(C)O)c(F)c4)cc(c12)CCO3 (single isomer, unassigned) [Example 258] | 6.69 |
| Cc1nc2c3c(c(C(F)(F)F)cc2n1C)-c1cccn2c(C(=O)c4cc(F)c(NC(=O)/C=C/CN5CCC[C@@]5(C)C(C)O)c(F)c4)cc(c12)CCO3 (single isomer, unassigned) [Example 259] | 14.2 |
| Cc1nc2c3c(c(C(F)(F)F)cc2n1C)-c1cccn2c(C(=O)c4cc(F)c(NC(=O)/C=C/CNC5CCOC5)c(F)c4)cc(c12)CCO3 (single isomer, unassigned) [Example 269, (E)-N-(4-(9,10-dimethyl-7-(trifluoromethyl)-13,14-dihydro-9H-imidazo-[4″,5″:5′,6′]benzo[1′,2′: 2,3]oxocino[4,5,6-hi]-indolizine-2-carbonyl)-2,6-difluorophenyl)-4-((tetrahydrofuran-3-yl)-amino)but-2-enamide] | 9.82 |
| Cc1nc2c3c(c(C(F)(F)F)cc2n1C)-c1cccn2c(C(=O)c4cc(F)c(NC(=O)/C=C/CNC5CCOC5)c(F)c4)cc(c12)CCO3 (single isomer, unassigned) [Example 270, (E)-N-(4-(9,10-dimethyl-7-(trifluoromethyl)-13,14-dihydro-9H-imidazo-[4″,5″:5′,6′]benzo[1′,2′: 2,3]oxocino[4,5,6-hi]-indolizine-2-carbonyl)-2,6-difluorophenyl)-4-((tetrahydrofuran-3-yl)-amino)but-2-enamide] | 12 |
| CC1Cc2cc(C(=O)c3cc(F)c(NC(=O)/C=C/CN[C@H]4CCOC4)c(F)c3)n3cccc(c23)-c2c(C(F)(F)F)cc3c(ncn3C)c2O1 (single isomer, unassigned) [Example 271] | 13.6 |
| Cc1nc2c3c(c(C(F)(F)F)cc2n1C)-c1cccn2c(C(=O)c4cc(F)c(NC(=O)/C=C/CNC5(C)COC5)c(F)c4)cc(c12)CC(C)O3 (single isomer, unassigned) [Example 273, mono((E)-2-(3,5-difluoro-4-(4-((3-methyloxetan-3-yl)ammonio)but-2-en-amido)benzoyl)-9,10,13-trimethyl-7-(trifluorometh-yl)-13,14-dihydro-9H-imidazo[4″,5″:5′,6′]benzo-[1′,2′:2,3]oxocino[4,5,6-hi]indolizin-11-ium) mono(2,2,2-trifluoro-acetate)] | 30.1 |
| Cc1nc2c3c(c(C(F)(F)F)cc2n1C)-c1cccn2c(C(=O)c4cc(F)c(NC(=O)/C=C/CN5CC6C(CO)C6C5)c(F)c4)cc(c12)CCO3 (single isomer, unassigned) [Example 278, (E)-3-(4-((4-(9,10-dimeth-yl-7-(trifluoromethyl)-13,14-dihydro-9H-imidazo-[4″,5″:5′,6′]-benzo[1′,2′:2,3]oxocino-[4,5,6-hi]indolizine-2-carbonyl)-2,6-difluoro-phenyl)amino)-4-oxobut-2-en-1-yl)-6-(hydroxy-methyl)-3-azabicyclo-[3.1.0]hexan-3-ium 2,2,2-trifluoroacetate] | 44.3 |
| COCc1nc2c3c(c(OC)cc2n1C)-c1cccn2c(C(=O)c4cc(F)c(NC(=O)/C=C/CN5CC6(CCCOC6)C5)c(F)c4)cc(c12)CCN3C (single isomer, unassigned) [Example 292, mono((E)-2-(4-((2,6-difluoro-4-(7-methoxy-10-(methoxymethyl)-9,12-dimethyl-9,12,13,14-tetra-hydroimidazo[4″,5″: 5′,6′]benzo[1′,2′:2,3]azo-cino[4,5,6-hi]indolizin-11-ium-2-carbonyl)phenyl)-amino)-4-oxobut-2-en-1-yl)-6-oxa-2-azaspiro[3.5]-nonan-2-ium) mono(2,2,2-trifluoroacetate)] | 84.9 |
| Cc1nc2c3c(c(C(F)(F)F)cc2n1C)-c1cccn2c(C(=O)c4cc(F)c(NC(=O)/C=C/CN5CC6(CCCOC6)C5)c(F)c4)cc(c12)CCO3 [Example 253, mono((E)-2-(4-(4-(6-oxa-2-azaspiro[3.5]nonan-2-ium-2-yl)but-2-enamido)-3,5-difluorobenzoyl)-9,10-dimethyl-7-(trifluorometh-yl)-13,14-dihydro-9H-imidazo[4″,5″:5′,6′]benzo-[1′,2′:2,3]oxocino[4,5,6-hi]indolizin-11-ium) mono-(2,2,2-trifluoroacetate)] | 24.8 |
| Cc1nc2c3c(c(C(F)(F)F)cc2n1C)-c1cccn2c(C(=O)c4cc(F)c(NC(=O)C=CCN5CCC5CC(=O)N(C)C)c(F)c4)cc(c12)CCO3 [Example 254, mono(2-(4-((E)-4-((2S)-2-(2-(dimethylamino)-2-oxoethyl)azetidin-1-ium-1-yl)but-2-enamido)-3,5-difluorobenzoyl)-9,10-dimethyl-7-(trifluorometh-yl)-13,14-dihydro-9H-imidazo[4″,5″:5′,6′]benzo-[1′,2′:2,3]oxocino[4,5,6-hi]indolizin-11-ium) mono(2,2,2-trifluoro-acetate)] | 20.9 |
| Cc1nc2c3c(c(C(F)(F)F)cc2n1C)-c1cccn2c(C(=O)c4cc(F)c(NC(=O)C=CCN5CCCC5C5(O)CC5)c(F)c4)cc(c12)CCO3 (stereo not shown) [Example 255, mono(2-(3,5-difluoro-4-((E)-4-((28)-2-(1-hydroxy-cyclopropyl)pyrrolidin-1-ium-1-yl)but-2-enamido)-benzoyl)-9,10-dimethyl-7-(trifluoromethyl)-13,14-dihydro-9H-imidazo-[4″,5″:5′,6′]benzo[1′,2′: 2,3]oxocino[4,5,6-hi]-indolizin-11-ium) mono-(2,2,2-trifluoroacetate)] | 11.7 |
| Cc1nc2c3c(c(C(F)(F)F)cc2n1C)-c1cccn2c(C(=O)c4cc(F)c(NC(=O)/C=C/CN5CCC[C@H]5CO)c(F)c4)cc(c12)CCO3 [Example 256, mono(2-(3,5~difluoro-4-((E)-4-((2S)-2-(hydroxy-methyl)pyrrolidin-1-ium-1-yl)but-2-enamido)ben-zoyl)-9,10-dimethyl-7-(trifluoromethyl)-13,14-dihydro-9H-imidazo-[4,5″:5′,6′]benzo[1′,2′: 2,3]oxocino[4,5,6-hi]-indolizin-11-ium) mono-(2,2,2-trifluoroacetate)] | 4.7 |

Second part, the compound after the results:

| IC50 [nM] | SMILES |
| --- | --- |
| 54.9 | Cc1nc2c3c(c(C(F)(F)F)cc2n1C)-c1cccn2c(C(=O)c4cc(F)c(NC(=O)/C=C/C5CCCN5)c(F)c4)cc(c12)CCO3 (single isomer, unassigned) [Example 250, (E)-N-(4-(9,10-dimethyl-7-(trifluoromethyl)-13,14-dihydro-9H-imidazo-[4″,5″:5′,6′]benzo[1′,2′: 2,3]oxocino[4,5,6-hi]-dolizine-2-carbonyl)-2,6-difluorophenyl)-3-(pyrrol-idin-2-yl)acrylamide] |
| 14.9 | Cc1nc2c3c(c(C(F)(F)F)cc2n1C)-c1cccn2c(C(=O)c4cc(F)c(NC(=O)/C=C/CNC5(C)COC5)c(F)c4)cc(c12)CC(C)O3 (single isomer, unassigned) [Example 272, mono((E)-2-(3,5-difluoro-4-(4-((3-methyloxetan-3-yl)ammonio)but-2-en-amido)benzoyl)-9,10,13-trimethyl-7-(trifluoro-methyl)-13,14-dihydro-9H-imidazo[4″,5″:5′,6′]-benzo[1′,2′:2,3]oxocino-[4,5,6-hi]indolizin-11-ium) mono(2,2,2-trifluoroacetate)] |
| 57.6 | CN1CCc2cc(C(=O)c3cc(F)c(NC(=O)/C=C/CNC4(C)COC4)c(F)c3)n3cccc(c23)-c2c(C(F)(F)F)cc3nn(C)cc3c21 (single isomer, unassigned) [Example 282, (E)-N-(4-((4-(10,12-dimethyl-7-(trifluorometh-yl)-10,12,13,14-tetrahydro-indolizino[8′,1′:4,5,6]-azocino[2,3-e]indazole-2-carbonyl)-2,6-difluoro-phenyl)amino)-4-oxobut-2-en-1-yl)-3-methyloxetan-3-aminium 2,2,2-trifluoro-acetate] |
| 40.4 | Cc1nc2c3c(c(C(F)(F)F)cc2n1C)-c1cccn2c(C(=O)c4cc(F)c(NC(=O)/C=C/CN5CC6(CCOC6)C5)c(F)c4)cc(c12)CCO3 (single isomer, unassigned) [Example 284] |
| 41.6 | Cc1nc2c3c(c(C(F)(F)F)cc2n1C)-c1cccn2c(C(=O)c4cc(F)c(NC(=O)/C=C/CN5CCC5CC(C)(C)O)c(F)c4)cc(c12)CCN3C (single isomer, unassigned) [Example 298, (E)-1-(4-((2,6-difluoro-4-(9,10,12-trimethyl-7-(trifluoromethyl)-9,12,13,14-tetrahydro-imidazo[4″,5″:5′,6′]benzo-[1′,2′:2,3]azocino[4,5,6-hi]indolizine-2-carbonyl)-phenyl)amino)-4-oxobut-2-en-1-yl)-2-(2-hydroxy-2-methylpropyl)azetidin-1-ium 2,2,2-trifluoro-acetate] |
| 52.5 | Cc1nc2c3c(c(C(F)(F)F)cc2n1C)-c1cccn2c(C(=O)c4cc(F)c(NC(=O)/C=C/CN5CCC5CC(C)(C)O)c(F)c4)cc(c12)CCN3C (single isomer, unassigned) [Example 299, (E)-1-(4-((2,6-difluoro-4-(9,10,12-trimethyl-7-(trifluoromethyl)-9,12,13,14-tetrahydro-imidazo[4″,5″:5′,6′]benzo-[1′,2′:2,3]azocino[4,5,6-hi]indolizine-2-carbonyl)-phenyl)amino)-4-oxobut-2-en-1-yl)-2-(2-hydroxy-2-methylpropyl)azetidin-1-ium 2,2,2-trifluoroacetate] |
